{"source": "PubChem BioAssay AID1845198", "about": "(Molecular Pharmacology Branch, DTP, NCI, 2023)", "tested_on": "425362-245-T-J1 tumor spheroids, viability % test/control", "experiment": "Anticancer human tumor 425362-245-T-J1 patient-derived melanoma cell line growth inhibition", "conditions": "spheroids with HUVEC and MSC; for viability, T/C: stronger effect = lower value", "excerpt": "Multicellular complex tumor spheroid response to DNA repair inhibitors in combination with DNA-damaging drugs\nThis study explores the anticancer activities of DNA-damaging drugs and inhibitors of DNA damage repair, both as single agents and in combinations. Complex tumor spheroids comprised of malignant cells, endothelial cells and mesenchymal stem cells served as an in vitro model for human solid tumors. This model system incorporates physiologically relevant features and patient-derived or established malignant cell lines with clinically relevant genetic alterations from many tumor types. Twenty-six patient-derived or established malignant cell lines were evaluated representing sarcoma, melanoma, small cell lung cancer (SCLC), non-small cell lung cancer (NSCLC), as well as bladder, ovarian and pancreatic cancers. The concentration ranges selected for each drug and investigational agent were based upon clinically achievable concentrations if the clinical Cmax of the agent was known.\nCompounds. The drugs and compounds olaparib (NSC753686), talazoparib (NSC767125), berzosertib (NSC777718), elimusertib (NSC800525), nedisertib (NSC802822), VX-984 (NSC792969), AZD-1390 (NSC803789), temozolomide (NSC362856), topotecan (NSC609699), trabectedin (NSC813783), staurosporine (NSC755774), and gemcitabine (NSC613327) were obtained from the National Cancer Institute (NCI) Developmental Therapeutics Program Chemical Repository. The FDA-approved anticancer drug set is available from the Developmental Therapeutics Program at https://dtp.cancer.gov/organization/dscb/obtaining/available_plates.htm. […] The stock solutions were prepared in dimethyl sulfoxide (DMSO, Sigma-Aldrich, St. Louis, MO, cat. D2650) at 400-fold the tested concentration and stored at -70 degrees C. Prior to their use, the stock solutions were diluted in fresh medium and the final DMSO concentration in the assay was 0.25% (v/v). All drugs and investigational agents were tested over a range starting from a high concentration at or near the clinical Cmax and decreasing in half-log increments. If the clinical Cmax for an agent had not been determined, the highest concentration tested was 10 microM.\nCell Lines. The patient-derived cancer cell (PDC) lines: 156681-154-R-J1-PDC, 283228-195-R-J1-PDC, 287954-098-R-J1-PDC, 292921-168-R-J2-PDC, 349418-098-R-PDC, 425362-245-T-J1-PDC, 556581-035-R-J1-PDC, and BL0293-F563-PDC were received from the NCI Patient-Derived Models Repository (PDMR, https://pdmr.cancer.gov). The established cell lines HS-SY-2 (RRID:CVCL_8719), MPNST, and SYO-1 (RRID:CVCL_7146) were obtained from the Sloan Kettering Institute. The alveolar soft parts sarcoma cell line ASPS-1 (RRID:CVCL_S738) was established at the NCI and grown from internal seed stocks. The following established cell lines were purchased from the American Type Culture Collection (ATCC, Manassas, VA): G-401 (ATCC, cat. CRL-1441, RRID:CVCL_0270), SW982 (ATCC, cat. HTB-93, RRID:CVCL_1734), VA-ES-BJ (ATCC, cat. CRL-2138, RRID:CVCL_1785), NCI-H719 (ATCC, cat. CRL-5837, RRID:CVCL_1582), NCI-H196 (ATCC, cat. CRL-5823, RRID:CVCL_1509), NCI-H841 (ATCC, cat. CRL-5845, RRID:CVCL_1595), NCI-H1618 (ATCC, cat. CRL-5879, RRID:CVCL_1480), NCI-H1876 (ATCC, cat. CRL-5902, RRID:CVCL_1503), DMS 114 (ATCC, cat. CRL-2066; RRID:CVCL_1174), NCI-H211 (ATCC, cat. CRL-5824; RRID:CVCL_1529), and SW 1271 (ATCC, cat. CRL-2177, RRID:CVCL_1716). The small cell lung cancer cell line COR-L88 was purchased from Sigma-Aldrich (cat. 92031917-1VL, RRID:CVCL_1141). The non-small cell lung cancer cell lines NCI-H226 (RRID:CVCL_1544) and NCI-H322M (RRID:CVCL_1557) were established at the NCI and grown from internal seed stocks. Pooled donor human umbilical vein endothelial cells (HUVEC, Lonza, cat. CC-2519) and human mesenchymal stem cells (hMSC, Lonza, cat. PT-2501) were purchased from Lonza (Walkersville, MD).\nCell Culture. All cells were maintained in an incubator at 37 degrees C and 5% CO2 with 95% humidity. […]", "note": "“And” between values parts separate entries of the source, which are not always exact repeats. Identical values can stand only once.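 Further: spheroids exposed to agents for 7 days.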"}
{"smiles": "COc1ccc([C@@H](O)c2cc(-c3ncnc4cc(N5CCOCC5)ccc34)c(F)cc2Cl)nn1", "note": "+ Cn1nnc2c(C(N)=O)ncn2c1=O", "values": [{"measurement": "IC50", "setting": "curve of first compound, second compound 1 µM", "result": 2300, "unit": "nM"}, {"measurement": "IC50", "setting": "curve of first compound, second compound 3.16 µM", "result": 2570, "unit": "nM"}, {"measurement": "IC50", "setting": "curve of first compound, second compound 10 µM", "result": 2500, "unit": "nM"}, {"measurement": "IC50", "setting": "curve of first compound, second compound 31.6 µM", "result": 2670, "unit": "nM"}, {"measurement": "IC50", "setting": "curve of first compound, second compound 100 µM", "result": 2100, "unit": "nM"}, {"measurement": "viability, T/C", "setting": "second compound 1 µM, first compound 0.0316 µM", "result": 91, "unit": "%"}, {"measurement": "viability, T/C", "setting": "second compound 1 µM, first compound 0.1 µM", "result": 95.6, "unit": "%"}, {"measurement": "viability, T/C", "setting": "second compound 1 µM, first compound 0.316 µM", "result": 87.5, "unit": "%"}, {"measurement": "viability, T/C", "setting": "second compound 1 µM, first compound 1 µM", "result": 70.2, "unit": "%"}, {"measurement": "viability, T/C", "setting": "second compound 1 µM, first compound 3.16 µM", "result": 42.5, "unit": "%"}, {"measurement": "viability, T/C", "setting": "second compound 1 µM, first compound 10 µM", "result": 19.1, "unit": "%"}, {"measurement": "viability, T/C", "setting": "second compound 3.16 µM, first compound 0.0316 µM", "result": 101, "unit": "%"}, {"measurement": "viability, T/C", "setting": "second compound 3.16 µM, first compound 0.1 µM", "result": 111, "unit": "%"}, {"measurement": "viability, T/C", "setting": "second compound 3.16 µM, first compound 0.316 µM", "result": 104, "unit": "%"}, {"measurement": "viability, T/C", "setting": "second compound 3.16 µM, first compound 1 µM", "result": 76.2, "unit": "%"}, {"measurement": "viability, T/C", "setting": "second compound 3.16 µM, first compound 3.16 µM", "result": 45.7, "unit": "%"}, {"measurement": "viability, T/C", "setting": "second compound 3.16 µM, first compound 10 µM", "result": 20.3, "unit": "%"}, {"measurement": "viability, T/C", "setting": "second compound 10 µM, first compound 0.0316 µM", "result": 111, "unit": "%"}, {"measurement": "viability, T/C", "setting": "second compound 10 µM, first compound 0.1 µM", "result": 117, "unit": "%"}, {"measurement": "viability, T/C", "setting": "second compound 10 µM, first compound 0.316 µM", "result": 113, "unit": "%"}, {"measurement": "viability, T/C", "setting": "second compound 10 µM, first compound 1 µM", "result": 74.8, "unit": "%"}, {"measurement": "viability, T/C", "setting": "second compound 10 µM, first compound 3.16 µM", "result": 46.6, "unit": "%"}, {"measurement": "viability, T/C", "setting": "second compound 10 µM, first compound 10 µM", "result": 22.2, "unit": "%"}, {"measurement": "viability, T/C", "setting": "second compound 31.6 µM, first compound 0.0316 µM", "result": 110, "unit": "%"}, {"measurement": "viability, T/C", "setting": "second compound 31.6 µM, first compound 0.1 µM", "result": 109, "unit": "%"}, {"measurement": "viability, T/C", "setting": "second compound 31.6 µM, first compound 0.316 µM", "result": 94, "unit": "%"}, {"measurement": "viability, T/C", "setting": "second compound 31.6 µM, first compound 1 µM", "result": 78.9, "unit": "%"}, {"measurement": "viability, T/C", "setting": "second compound 31.6 µM, first compound 3.16 µM", "result": 44, "unit": "%"}, {"measurement": "viability, T/C", "setting": "second compound 31.6 µM, first compound 10 µM", "result": 20.8, "unit": "%"}, {"measurement": "viability, T/C", "setting": "second compound 100 µM, first compound 0.0316 µM", "result": 101, "unit": "%"}, {"measurement": "viability, T/C", "setting": "second compound 100 µM, first compound 0.1 µM", "result": 84.7, "unit": "%"}, {"measurement": "viability, T/C", "setting": "second compound 100 µM, first compound 0.316 µM", "result": 82.2, "unit": "%"}, {"measurement": "viability, T/C", "setting": "second compound 100 µM, first compound 1 µM", "result": 65.1, "unit": "%"}, {"measurement": "viability, T/C", "setting": "second compound 100 µM, first compound 3.16 µM", "result": 40.3, "unit": "%"}, {"measurement": "viability, T/C", "setting": "second compound 100 µM, first compound 10 µM", "result": 20.5, "unit": "%"}]}
{"smiles": "Cc1cc(C)c(CNC(=O)c2cc(-c3ccc(CN4CCOCC4)cc3)cc3c2cnn3C2CCCC2)c(=O)[nH]1", "values": [{"measurement": "viability, T/C", "setting": "compound 0.0316 µM", "result": "101% and 97.2% and 92.7%"}, {"measurement": "viability, T/C", "setting": "compound 0.1 µM", "result": "93% and 116% and 102%"}, {"measurement": "viability, T/C", "setting": "compound 0.316 µM", "result": "103% and 97.9% and 84.5%"}, {"measurement": "viability, T/C", "setting": "compound 1 µM", "result": "100% and 80.2% and 86.5%"}, {"measurement": "viability, T/C", "setting": "compound 3.16 µM", "result": "81.8% and 49.8% and 46.3%"}, {"measurement": "viability, T/C", "setting": "compound 10 µM", "result": "42.6% and 15.2% and 14.8%"}, {"measurement": "IC50", "setting": "curve of compound", "result": "8060 nM and 3010 nM and 2860 nM"}]}
